The values below come from ChEMBL document CHEMBL1201862, “PubChem BioAssay data set” (2004).

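Protocol summary: plate cells (96-well), add compound at 5 concentrations, incubate 48 h, interpolate endpoints linearly. Here, GI50 denotes the concentration required for 50% inhibition of growth.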 The source made the active and inactive calls. Cut-off read from the data, not from the text of the source: active = GI50 up to about 1.1 µM and inactive = higher.

Test systems include MDA-MB-435; ACHN; SK-MEL-5; MDA-MB-231; PC-3; NCI-H522; A549; HOP-62; SK-OV-3; SW-620; RPMI-8226; OVCAR-3; U-251; SF-268; SK-MEL-2; IGROV-1; SNB-75; UACC-62; DU-145; T47D.
What all share (experiment): NCI tumour cell line growth inhibition, 48 h

As to `CCN(CC)C(=O)CCCCCCCCC1CO1` (stereo not drawn), the GI50 in the assay on MDA-MB-435, in the assay with ACHN, in the assay with SK-MEL-5, in the assay with MDA-MB-231, with PC-3 and in the assay on NCI-H522 was > 100 µM (inactive) throughout. For the same compound, the GI50 in the assay with A549, with HOP-62, in the assay on SK-OV-3, in the assay with SW-620, in the assay with RPMI-8226 and in the assay on OVCAR-3 was > 100 µM (inactive) in each case. In addition, the GI50 in the assay with U-251, with SF-268, in the assay with SK-MEL-2, in the assay on IGROV-1, in the assay on SNB-75 and in the assay with UACC-62 was > 100 µM (inactive) throughout. For the same compound, in the assay on DU-145, the GI50 is > 100 µM (inactive).
For `COC(=O)C1=C(C(=O)OC)C23CC4CCC2(C(=O)C1O3)C4(C)C` (stereo not drawn), the GI50 is > 100 µM (inactive) in the assay with ACHN; > 100 µM (inactive) in the assay on SK-MEL-5; 22 µM (inactive) in the assay with NCI-H522; > 100 µM (inactive) with A549; > 100 µM (inactive) in the assay on SK-OV-3; 78.3 µM (inactive) in the assay on SW-620. The GI50 with RPMI-8226 is 34.1 µM (inactive); in the assay on OVCAR-3, > 100 µM (inactive); with U-251, > 100 µM (inactive); in the assay with SF-268 it was 94.4 µM (inactive); in the assay with SK-MEL-2 it was > 100 µM (inactive); in the assay on IGROV-1, > 100 µM (inactive). For the same compound, the GI50 was 53.8 µM (inactive) with SNB-75, 73.1 µM (inactive) in the assay on UACC-62 and > 100 µM (inactive) with DU-145.
`CCOC(=O)N/N=C(/N)Cc1ccc(Cl)cc1`: the GI50 with MDA-MB-435, in the assay with ACHN, in the assay with SK-MEL-5, with MDA-MB-231, with PC-3 and in the assay on NCI-H522 was > 100 µM (inactive) throughout. The GI50 in the assay with A549, in the assay on HOP-62, with SK-OV-3, in the assay on SW-620, in the assay with RPMI-8226 and in the assay with OVCAR-3 was > 100 µM (inactive) throughout. Moreover, the GI50 with U-251, in the assay on SF-268, in the assay on SK-MEL-2, with IGROV-1, with SNB-75 and in the assay on UACC-62 was > 100 µM (inactive) in each case. For the same compound, the GI50 with DU-145 was > 100 µM (inactive).
With `Cc1cccc(C(C)O)n1` (stereo not drawn), the GI50 in the assay on ACHN, with SK-MEL-5, in the assay on MDA-MB-231, with PC-3, in the assay on NCI-H522 and in the assay with A549 was > 100 µM (inactive) in each case. Also, the GI50 with HOP-62, in the assay with SK-OV-3, with SW-620, in the assay on OVCAR-3, in the assay on U-251 and with SF-268 was > 100 µM (inactive) throughout. In addition, the GI50 with SK-MEL-2, in the assay on IGROV-1, in the assay with SNB-75, in the assay with T47D, with UACC-62 and with DU-145 was > 100 µM (inactive) in each case.
As for `CCOP(=O)(Nc1ccc(-c2ccc(N)cc2)cc1)OCC`, the GI50 with MDA-MB-435, in the assay with ACHN, in the assay on SK-MEL-5, in the assay on MDA-MB-231, in the assay with PC-3 and with NCI-H522 was > 100 µM (inactive) each time. The GI50 in the assay with A549 was > 100 µM (inactive); with HOP-62, 89.5 µM (inactive); in the assay with SK-OV-3 it was > 100 µM (inactive); in the assay with RPMI-8226 it was > 100 µM (inactive); in the assay with OVCAR-3, > 100 µM (inactive); with U-251 it was > 100 µM (inactive). The GI50 with SF-268, in the assay with SK-MEL-2, with IGROV-1, in the assay with SNB-75, in the assay on UACC-62 and in the assay on DU-145 was > 100 µM (inactive) each time.
With `Cc1ccc(S(=O)(=O)N/N=C/c2oc(-c3cccc([N+](=O)[O-])c3)c(-c3cccc([N+](=O)[O-])c3)c2[N+](=O)[O-])cc1`, the GI50 is 45.8 µM (inactive) in the assay on ACHN; 73.1 µM (inactive) in the assay on SK-MEL-5; 15.1 µM (inactive) in the assay on NCI-H522; > 100 µM (inactive) in the assay on A549; 23.4 µM (inactive) in the assay with SK-OV-3; 37.8 µM (inactive) with SW-620. The GI50 in the assay on RPMI-8226 is 24 µM (inactive); in the assay with OVCAR-3, > 100 µM (inactive); in the assay with U-251 it was 66.5 µM (inactive); in the assay with SF-268, 21.2 µM (inactive); in the assay on SK-MEL-2, 28.3 µM (inactive); in the assay with IGROV-1, 29.9 µM (inactive). Further, the GI50 in the assay on SNB-75 is 92.5 µM (inactive); in the assay with UACC-62, 17.8 µM (inactive); with DU-145, > 100 µM (inactive).
For the compound `COc1cc2c(cc1OC)[C@@H]1[C@H](C#N)C(=O)C(C)(C)N1CC2`, the GI50 with MDA-MB-435 was > 100 µM (inactive); in the assay on ACHN, > 100 µM (inactive); with SK-MEL-5 it was > 100 µM (inactive); with MDA-MB-231, 28.6 µM (inactive); with PC-3, > 100 µM (inactive); in the assay with NCI-H522 it was > 100 µM (inactive). The GI50 is > 100 µM (inactive) in the assay with A549; > 100 µM (inactive) with SK-OV-3; > 100 µM (inactive) with SW-620; 53.7 µM (inactive) with RPMI-8226; > 100 µM (inactive) in the assay with OVCAR-3; > 100 µM (inactive) with U-251. Further, the GI50 in the assay with IGROV-1, in the assay on UACC-62 and with DU-145 was > 100 µM (inactive) throughout.
With `O=C1Oc2cc3c(c4cccc1c24)OCN(c1ccc(Cl)cc1)C3`, the GI50 in the assay with ACHN was 3.13 µM (inactive); with SK-MEL-5, 1.37 µM (inactive); in the assay with NCI-H522, 15.2 µM (inactive); with A549, 10.2 µM (inactive); with HOP-62, 4.32 µM (inactive); in the assay on SK-OV-3 it was > 100 µM (inactive). For the same compound, the GI50 with SW-620 is 7.4 µM (inactive); with RPMI-8226, 7.14 µM (inactive); with OVCAR-3 it was 12 µM (inactive); in the assay on U-251, 41.9 µM (inactive); with SF-268, 23.9 µM (inactive); in the assay on SK-MEL-2, 1.83 µM (inactive). Also, the GI50 in the assay with IGROV-1 was > 100 µM (inactive); in the assay on SNB-75, > 63.7 µM (inactive); with UACC-62, 4.79 µM (inactive).
Consider `CCOC(=O)C1=C(c2ccccc2)N(C(C)=O)Cc2ccccc21`, for which the GI50 in the assay on ACHN is 16.1 µM (inactive); in the assay on SK-MEL-5 it was 12.6 µM (inactive); in the assay on NCI-H522, 16.9 µM (inactive); with A549, 18.4 µM (inactive); with HOP-62, 19.6 µM (inactive); in the assay with SK-OV-3 it was 29.9 µM (inactive). Further, the GI50 was 34.8 µM (inactive) in the assay on SW-620; 13.5 µM (inactive) in the assay with RPMI-8226; 18.6 µM (inactive) with OVCAR-3; 17.2 µM (inactive) in the assay with U-251; 19 µM (inactive) with SF-268; 17.5 µM (inactive) with SK-MEL-2. Also, the GI50 in the assay on IGROV-1 was 23.6 µM (inactive); in the assay with SNB-75 it was 18.6 µM (inactive); with UACC-62, 12.2 µM (inactive).
For the compound `CCCCn1c(C)c(C(=O)OCC)c2cc(OCc3ccc(C(=O)Nn4c(C)ccc4C)cc3)c(Br)cc21`, the GI50 in the assay on MDA-MB-435, with ACHN, in the assay with SK-MEL-5, with PC-3, in the assay on NCI-H522 and with A549 was > 100 µM (inactive) in each case. For the same compound, the GI50 in the assay with HOP-62, in the assay with SK-OV-3, with SW-620, with RPMI-8226, in the assay with OVCAR-3 and in the assay with U-251 was > 100 µM (inactive) throughout. Further, the GI50 in the assay on SF-268, in the assay on SK-MEL-2, in the assay on IGROV-1, in the assay with SNB-75, in the assay on T47D and in the assay with UACC-62 was > 100 µM (inactive) in each case. Further, the GI50 in the assay on DU-145 is > 100 µM (inactive).
As for `CN(C)CC/C(=N\Nc1ccc([N+](=O)[O-])cc1)c1ccccc1`, the GI50 in the assay with ACHN was 2.61 µM (inactive); in the assay with SK-MEL-5 it was 14.5 µM (inactive); with NCI-H522, 13.9 µM (inactive); in the assay with A549, 13.4 µM (inactive); with HOP-62, 14.2 µM (inactive); with SK-OV-3, 16.1 µM (inactive). In addition, the GI50 was 13.4 µM (inactive) in the assay on SW-620; 11 µM (inactive) with RPMI-8226; 16.3 µM (inactive) in the assay with OVCAR-3; 12.4 µM (inactive) with U-251; 7.94 µM (inactive) in the assay with SF-268; 12.9 µM (inactive) in the assay on SK-MEL-2. In addition, the GI50 in the assay with IGROV-1 was 11 µM (inactive); with SNB-75, 4.5 µM (inactive); in the assay with UACC-62, 12.9 µM (inactive).
Take `N#CC(NNC(=O)c1ccccc1O)c1ccccc1` (stereo not drawn): the GI50 with ACHN was 0.479 µM (active); in the assay on SK-MEL-5, 16.1 µM (inactive); in the assay with NCI-H522, 10.2 µM (inactive); in the assay with A549 it was 0.423 µM (active); in the assay on HOP-62 it was 5.89 µM (inactive); with SK-OV-3 it was 3.62 µM (inactive). Also, the GI50 in the assay on SW-620 was 8.02 µM (inactive); in the assay on RPMI-8226, 6.32 µM (inactive); in the assay with OVCAR-3, 3.12 µM (inactive); in the assay with U-251, 0.486 µM (active); with SF-268, 0.422 µM (active); in the assay on SK-MEL-2 it was 2.55 µM (inactive). In addition, the values for the GI50 with IGROV-1, in the assay with SNB-75 and in the assay on UACC-62 were 1.13 µM (inactive), 0.38 µM (active) and 0.398 µM (active), respectively.
